Assay results reported in the OligoGym collection.
“And” between values parts separate entries of the source, which are not always exact repeats. Equal entries are not always repeated. After the bases stand the sugars from the 5' end (letter, count) and the backbone: PS all phosphorothioate, else s phosphorothioate and o phosphodiester by linkage. Methylation of C is not given here. e = 2'-O-(2-methoxyethyl) (MOE); d = 2'-deoxy (DNA)

Target: DGAT2
Details: ASO

Sequence	target mRNA inhibition (HepG2, 2.5 µM)	target mRNA inhibition (HepG2, 10 µM)	target mRNA inhibition (HepG2, 0.12 µM)	target mRNA inhibition (HepG2, 20 µM) [%]
AGAAGAGCAAAGGCTTGCTT (sugars e5 d10 e5, PS)	74% and 72%	94% and 93%		
TGCTGCTCAGAAGGCCAGGC (sugars e5 d10 e5, PS)			42%	
TAACCACAGCGATAATCACA (sugars e5 d10 e5, PS)	60%	93%		
GGCACAGAAAAGTGAGGCTT (sugars e5 d10 e5, PS)			32%	
CATGGAGCTCAGAGACTCAG (sugars e5 d10 e5, PS)			65%	
AAAAACCACTGTTGCTGAGC (sugars e5 d10 e5, PS)	62%	92%		
TGCAGCTTGGAGGAGGAGTA (sugars e5 d10 e5, PS)			36%	
TTGCCACTCCCATTCTTTGA (sugars e5 d10 e5, PS)			39% and 57%	
GCCACTCCCAGTACAAGGAA (sugars e5 d10 e5, PS)			0%	
TGCAGAAGGCACCCAGGCCC (sugars e5 d10 e5, PS)			46%	
GCAGGACCCCGGAGTAGGCG (sugars e2 d13 e5, PS)			68%	
CATTGCTCAGATCACTCTGC (sugars e5 d10 e5, PS)	88%	74%		
AGCATTGCCACTCCCATTCT (sugars e5 d10 e5, PS)			74%	
ATAGCATTGCCACTCCCATT (sugars e5 d10 e5, PS)			57%	
ATGGAGCTCAGAGACTCAGC (sugars e5 d10 e5, PS)			78%	
GTGTCGGAGGAGAAGAGGCC (sugars e5 d10 e5, PS)			52%	
GCGATTCACTGAGGACCTCA (sugars e5 d10 e5, PS)	74%	86%		
CACCAGCTGGATGGGAAAGT (sugars e5 d10 e5, PS)			31%	
GAATGCACTGAGTTTCTGCT (sugars e5 d10 e5, PS)	73% and 63%	92% and 87%		
GCCAATGCCTAGGTCAC (sugars e3 d10 e4, PS)	85% and 93%	79% and 93%		
GTCACTGACTCACAACAGCA (sugars e5 d10 e5, PS)	58%	92%		
TACCTTATCTTTGTCCACAT (sugars e5 d10 e5, PS)		78% and 91%		
AGTAGGGCACCAGCCCCCAG (sugars e5 d10 e5, PS)			0%	

Sequence	target mRNA inhibition (HepG2, 2.5 µM)	target mRNA inhibition (HepG2, 10 µM)	target mRNA inhibition (HepG2, 0.12 µM)	target mRNA inhibition (HepG2, 20 µM) [%]
TTCAAAAAGTAGCTACTGCA (sugars e5 d10 e5, PS)			47%	
GTGGTCAGCAGGTTGTGTGT (sugars e5 d10 e5, PS)	0%		44%	
TTCACCAGCTGGATGGGAAA (sugars e5 d10 e5, PS)			26%	
TTTCCTTTGAAATCCAATGC (sugars e5 d10 e5, PS)	69%	90%		
AAAATCCATGTCAGAGAGGC (sugars e5 d10 e5, PS)	64%	90%		
AACCAACTCTCAGCTACTCC (sugars e5 d10 e5, PS)	82% and 71%	93% and 97%		
GCCAGGTAAGGCCGTATGCC (sugars e3 d14 e3, PS)			61%	
GCAGATCTTCATTACATGAT (sugars e5 d10 e5, PS)		86% and 91%		
AAAGGAGTTTGTGTTTCCCA (sugars e5 d10 e5, PS)	73%	91%		
ATGCCCTTGCTGTAGGACCC (sugars e5 d10 e5, PS)	79% and 73%	90%		
GACCTTGGGCAAGTTACCTA (sugars e5 d10 e5, PS)	50% and 71%	89% and 94%		
CTCAGTCACTGACTCACAAC (sugars e5 d10 e5, PS)	54%	88%		
ATCACAATATATGGGCAAGC (sugars e5 d10 e5, PS)	83% and 86%	92% and 94%		
CTTAAGGCAAAGTAACATAC (sugars e5 d10 e5, PS)	48% and 57%	75% and 96%		
GCAATGCCAATGCCTAGGTC (sugars e5 d10 e5, PS)	87% and 89%	82% and 91%		
TGGATGGGAAAGTAGTCTCG (sugars e5 d10 e5, PS)			40%	
TGCCACTCCCATTCTTTGAA (sugars e5 d10 e5, PS)	0%	62%		
TGGCTTCCTCAGGGCCCACC (sugars e5 d10 e5, PS)	79%	87%		
ACCCACTGGAGCACTGAGAT (sugars e5 d10 e5, PS)			72%	
GGCATGGAGCTCAGAGACTC (sugars e3 d14 e3, PS)			74%	
TGGTCAGCAGGTTGTGTGTC (sugars e2 d13 e5, PS)			57%	
TGGAGCTCAGAGACTCAGCC (sugars e2 d16 e2, PS)			37%	
CTTTGGATAGTCGATTTACC (sugars e5 d10 e5, PS)	59%	88%		

Sequence	target mRNA inhibition (HepG2, 2.5 µM)	target mRNA inhibition (HepG2, 10 µM)	target mRNA inhibition (HepG2, 0.12 µM)	target mRNA inhibition (HepG2, 20 µM) [%]
CAGGCCACTCCCAGTACAAG (sugars e5 d10 e5, PS)			1%	
CAGGACCCCGGAGTAGGCGG (sugars e2 d13 e5, PS)			76%	
TTTCCATTTTTTACCCAACC (sugars e5 d10 e5, PS)	54%	90%		
TCAGAGACTCAGCCGCACCC (sugars e2 d13 e5, PS)			56%	
TCCAATGCACCTTGTATTAA (sugars e5 d10 e5, PS)	72% and 52%	92% and 83%		
GCACTTGATCTGGGACCCAA (sugars e5 d10 e5, PS)	69% and 73%	95% and 92%		
CTCCCACCTGAGTGCTGCAA (sugars e5 d10 e5, PS)	74%	90%		
ATACCTCCAGACATCAGGTA (sugars e5 d10 e5, PS)			50%	
CCTCATCTCAGTGCCCAAAG (sugars e5 d10 e5, PS)	25%	63%		
AGGCATGGAGCTCAGAGACT (sugars e5 d10 e5, PS)	39%	84%	69% and 83%	51
GGTTATTGCAACCACTAGGA (sugars e5 d10 e5, PS)	80%	91%		
TGGCTCAGTTCACCTCCAGG (sugars e5 d10 e5, PS)	53%	86%		
CAGGACCCCGGAGTAGGCGG (sugars e3 d14 e3, PS)			53%	
CTTTTAAATAACCCACAGAC (sugars e5 d10 e5, PS)			0%	
CACCTGTTACTACATGTCTA (sugars e5 d10 e5, PS)	68%	93%		
TTCCTGGTGGTCAGCAGGTT (sugars e5 d10 e5, PS)			61%	
GGAGTAGGGCACCAGCCCCC (sugars e5 d10 e5, PS)			17%	
TCTGGAACTTCTTCTGGACC (sugars e5 d10 e5, PS)			43%	
CCTTCCAGGGAATAAAATAC (sugars e5 d10 e5, PS)			3%	
CAAGAGGTAAGGCCAAGGAA (sugars e5 d10 e5, PS)	75%	90%		
GCAGGGTTACCCAGCCACTG (sugars e5 d10 e5, PS)	85% and 67%	75% and 88%		
CTGCTTCTTGGGCATCTGCT (sugars e5 d10 e5, PS)	76% and 73%	88% and 80%		
GCTGGTGTTCTACAAGCTGC (sugars e5 d10 e5, PS)	79% and 81% and 83%	90% and 86% and 88%		

Sequence	target mRNA inhibition (HepG2, 2.5 µM)	target mRNA inhibition (HepG2, 10 µM)	target mRNA inhibition (HepG2, 0.12 µM)	target mRNA inhibition (HepG2, 20 µM) [%]
GCTCACTTCTGTGGCCTCTG (sugars e5 d10 e5, PS)			41%	
ACAATGGGAATGGTATCGCA (sugars e5 d10 e5, PS)	59%	92%		
GCATAGCTGAGCAAATCCAT (sugars e5 d10 e5, PS)	69%	85%		
GCTCAGCACTGACATGGTAA (sugars e5 d10 e5, PS)	79% and 66%	96% and 92%		
CCTCGAAGATCACCTGCTTG (sugars e5 d10 e5, PS)			53%	
CAGGTCTATGCTGCAGTCAT (sugars e5 d10 e5, PS)	53% and 45%	89% and 82%		
TTAAATAACCCACAGACACC (sugars e5 d10 e5, PS)			0%	
AGGAGTTTGTGTTTCCCATT (sugars e5 d10 e5, PS)			39%	
AACACTCACAGCACTTTACC (sugars e5 d10 e5, PS)			4%	
CCTTTGAAATCCAATGCACC (sugars e5 d10 e5, PS)	62%	92%		
TTCCTCATCTATACAGTGGG (sugars e5 d10 e5, PS)	57% and 72% and 73%	89% and 82% and 92%		
GTGCAAGAGTTACCTCCTCC (sugars e5 d10 e5, PS)	80% and 78%	94% and 92%		
ACCACTGTTGCTGAGCTCAT (sugars e5 d10 e5, PS)	67%	90%		
ATGGAGCTCAGAGACTCAGC (sugars e3 d14 e3, PS)			71%	
AAGCCTGGATGGTGGTTGCA (sugars e5 d10 e5, PS)	82% and 66%	91% and 82%		
GTCTTCACCAGCTGGATGGG (sugars e5 d10 e5, PS)			42%	
TGGTCAGCAGGTTGTGTGTC (sugars e5 d10 e5, PS)	19%	72%	55% and 43%	83
ATCCAATGCACCTTGTATTA (sugars e5 d10 e5, PS)	57%	93%		
GAGCTCAGAGACTCAGCCGC (sugars e5 d10 e5, PS)			81%	
TAGAGGTTTACTGCATAGCT (sugars e5 d10 e5, PS)	84% and 72%	85% and 92%		
